In patent US4333942A, “Anti-depressant and analgesic 4-phenoxypiperidines” (BYK Gulden Lomberg Chemische Fabrik GmbH, priority 1979, dated 1982):
Where two headings read alike, the source gives them in different places.

How the values were obtained:
[1] = Determination of the lethal effect (acute toxicity); parameters: species or system female albino mice NMRI; details: mouse, in vivo; oral; mice; observation time 7 days
Protocol: (§1) All the experiments are carried out on female albino mice NMRI of 20 to 30 g body weight. 5 to 20 animals are employed per dose and the dose/response relationship are determined.
The mice were given food (Altromin®) and water ad libitum. The substances to be tested were administered orally as solutions of varying concentration in a volume of from 10 to 20 ml/kg using a stomach tube; 5 animals per dose were kept in Macrolon cages, type II. The observation time was 7 days. […] Literature: Litchfield and Wilkoxon ([…]) J. Pharm. Exp. Therap. 96/2, 99.

acetic acid writhing = experiment: Acetic acid writhing test (analgesia); format: in vivo, female albino mice NMRI; details: Mus musculus, read-out: Analgesic action, acetic acid writhing test ED50
Protocol: as §1
(b) Writhing test (acetic acid writhing): intraperitoneal injection of 0.2 ml/20 g of body weight of mouse of a 0.75% strength acetic acid solution induces in albino mice a typical syndrome proceeding over the body with dorsal flection, called "writhing". These "writhes" (occurring in the course of the first half hour after administration) are counted over a period of 5 to 20 minutes after administration of acetic acid. The substances tested (administered 30 minutes before the acetic acid injection) cause a reduction in the number of writhing syndromes. The dose which reduces the number thereof by 50%, relative to the daily control, is determined. Literature: Koster, Anderson, de Beer (1959) Fed.Proc. 18, 412.

thermal pain = experiment: Tail flick test (analgesia); format: in vivo, female albino mice NMRI; details: Mus musculus; oral; dose which prolongs the reaction time by 50%; mice; read-out: Analgesic action, tail flick test ED50
Protocol: as §1
(a) Tail flick test: Albino mice are exposed to thermal pain, from a focused heat ray, at the tail root, and the time which elapses before the tail is drawn away is recorded. This time is usually in the range of from 4 to 5 seconds. The substances tested cause a delayed reaction to the thermal pain, that is a reduced thermal pain reaction. The dose which prolongs the reaction time by 50% is determined. Literature: D'Amour, F. E., and Smith, D. L., (1941) J. Pharmacol. Exp. Ther. 72, 74.

Reserpine ptosis = experiment: Antiptotic action (Reserpine antagonism); format: in vivo, female albino mice NMRI; details: Mus musculus
Protocol: as §1
Antiptotic action (Reserpine antagonism)
Subcutaneous administration of 2 mg/kg of reserpine to albino mice causes ptosis in the course of several hours [Reserpine Ptosis, Domenjoz and Theobald (1959), Arch, Int. Pharmacodyn. 120,450]. The test substances are administered to the animals orally in various doses 3 hours before the administration of reserpine. The intensity of ptosis is graded by a rating scale 3-2-1-0 (complete, moderate, slight, no ptosis) in the 2nd, 3rd and 4th hour after administration of the reserpine (that is 5, 6 and 7 hours after administration of the substance). The substances tested antagonize the ptosis according to the dose. The ED50 of the antagonistic action is evaluated in comparison to the daily reserpine control.

[2] = oral, 30 minutes before acetic acid, dose which reduces writhes by 50%, mice
[3] = po, 5 h, read-out: Antiptotic action, Reserpine antagonism ED50, 5 hours after administration
[4] = po, 6 h, read-out: Antiptotic action, Reserpine antagonism ED50, 6 hours after administration
[5] = po, 7 h, read-out: Antiptotic action, Reserpine antagonism ED50, 7 hours after administration
[6] = read-out: Antiptotic action, Reserpine antagonism ED50, oral, 5 hours after administration, reserpine 2 mg/kg s.c., mice
[7] = oral, 6 hours after administration, reserpine 2 mg/kg s.c., mice, read-out: Antiptotic action, Reserpine antagonism ED50, 6 hours after administration
[8] = oral, 7 hours after administration, reserpine 2 mg/kg s.c., mice, read-out: Antiptotic action, Reserpine antagonism ED50, 7 hours after administration

SMILES	LD50 at 168 h [1]	ED50 (acetic acid writhing; [2])	ED50 (thermal pain)	ED50 (acetic acid writhing; po)	ED50 (Reserpine ptosis; [3])	ED50 (Reserpine ptosis; [4])	ED50 (Reserpine ptosis; [5])	ED50 (Reserpine ptosis; [6])	ED50 (Reserpine ptosis; [7])	ED50 (Reserpine ptosis; [8])
CN1CCC(Cc2ccccc2)(Oc2ccc([N+](=O)[O-])cc2)CC1 [compound 6]	290 mg/kg	35 mg/kg	> 75 mg/kg	–	–	–	–	–	–	–
CC(C)(C)N1CCC(Oc2ccc([N+](=O)[O-])cc2)(c2ccccc2)CC1 [Serial No. 9, 1-(tert.-Butyl)-4-(4-nitrophenoxy)-4-phenylpiperidine]	–	–	–	10 mg/kg	–	–	–	–	–	–
CN1CCC(Cc2ccccc2)(Oc2ccccc2)CC1 [compound 7]	300 mg/kg	27 mg/kg	55 mg/kg	–	–	–	–	–	–	–
CN1CCC(Oc2ccccc2)(c2ccccc2)CC1 [compound 2]	220 mg/kg	–	35 mg/kg	–	2.1 mg/kg	2.7 mg/kg	4 mg/kg	–	–	–
CC(=O)Nc1ccc(OC2(c3ccccc3)CCN(C)CC2)cc1 [compound 10]	100 to 200 mg/kg	–	12.5 mg/kg	10 mg/kg	< 10 mg/kg	< 10 mg/kg	< 10 mg/kg	–	–	–
CN1CCC(Oc2ccc(N)cc2)(c2ccccc2)CC1 [compound 5]	160 mg/kg	–	12 mg/kg	7 mg/kg	0.7 mg/kg	3 mg/kg	10 mg/kg	–	–	–
c1ccc(OC2(c3ccccc3)CCNCC2)cc1 [compound 8]	> 200 mg/kg	50 mg/kg	25 mg/kg	–	–	–	–	~25 mg/kg	> 50 mg/kg	> 50 mg/kg
CN1CCC(Cc2ccccc2)(Oc2ccc(N)cc2)CC1 [compound 4]	180 mg/kg	27 mg/kg	2 mg/kg	–	–	–	–	9.5 mg/kg	24 mg/kg	50 mg/kg
CN1CCC(Oc2ccc([N+](=O)[O-])cc2)(c2ccccc2)CC1 [compound 3]	140 mg/kg	–	50 mg/kg	–	0.7 mg/kg	2 mg/kg	5.8 mg/kg	–	–	–
CN(C)CCCN1c2ccccc2CCc2ccccc21 [Serial No. 1, Imipramine, reference compound]	–	> 100 mg/kg	> 50 mg/kg	–	–	–	–	18 mg/kg	50 mg/kg	100 mg/kg
